Measured values from patent US20250360111A1, “COMPOSITIONS OF AGPAT4 INHIBITORS AND METHODS OF USING THEREOF TO TREAT CANCER” (The University of Hong Kong, priority 2024, published 2025).
Like-named read-outs stand apart in the source and are kept apart here.

Columns and labels:
HCC cells (Huh7) = assay: Rescue and PA addition experiments: migration, invasion, limiting dilution spheroid formation, western blot; format: cell-based, human; details: exogenous PA added to HCC cells
Description: Cells at limited dilutions were cultured in 100 μL serum-free DM E M/F12 medium (Invitrogen) supplemented with 20 ng/mL human recombinant epidermal growth factor (Sigma-Aldrich), 10 ng/mL human recombinant basic fibroblast growth factor (Sigma-Aldrich), […] (Sigma-Aldrich), B27 (1:50; Invitrogen), 500 U/mL penicillin, […] (Invitrogen), and 0.25% methylcellulose (Sigma-Aldrich). Cells were cultured in suspension in polyHEMA-coated 96-well plates. The cells were replenished with 30 μL of the supplemented medium every second day. The wells were monitored for sphere formation for 7-10 days. The tumor-initiating cell frequency was calculated using extreme limiting dilution analysis.
Cells were lysed in RIPA buffer (Cell Signalling Technology) containing a complete protease inhibitor cocktail (Roche) and PMSF (Sigma-Aldrich). Protein lysates were quantified and resolved on an SDS-PAGE gel, transferred onto a PV DF membrane (Pall), immunoblotted with a primary antibody, and incubated with a secondary antibody. The antibody signal was detected using the A mersham ECL Select Western Blotting Detection Reagent (GE Healthcare). […]

[1] = system: AGPAT LPAAT family members (AGPAT1, 2, 3, 4 and 5); assay: Isoform specificity: streptavidin pulldown and immunoblotting of CL26-alkyne-bound proteins; format: cell-based, human; details: Huh7 cells, DTB-PEG-azide, streptavidin pulldown
Description: An in-gel fluorescence assay was performed to investigate the protein targets of CL26. Huh7 cells overexpressing AGPAT4 or cysteine mutants were pre-treated with CL26 at the indicated concentrations for 2 h, followed by CL26-alkyne (1 μM) treatment for another 2 h. Cells were harvested in RIPA buffer supplemented with protease and phosphatase inhibitors (Thermo Fisher Scientific #A32961). The proteins were precipitated by incubation with 6× volume of pre-chilled acetone at −20° C. overnight. Proteins were pelleted by centrifugation at 5000 g for 10 min and resuspended in PBS. The protein content was measured using the BCA assay and normalized to 2 mg/mL. Cell lysates (50 μL) were labelled with azide-fluor 545 by click reaction (final reaction mixture: azide-fluor 545 (25 μM), copper(II) sulfate (1 mM), TBTA (100 μM), and freshly prepared TCEP (1 mM)) at room temperature with constant agitation. After incubation for 1 h, the reaction was quenched with the sampling buffer and boiled at 90° C. for 5 min. Samples were subjected to SDS-PAGE, in-gel fluorescence was captured using ChemiDoc MP (Bio-Rad), and Coomassie Blue staining was performed. Similarly, immunoblotting was used to investigate the protein targets of CL26. […] The samples were subjected to SDS-PAG E and imaged for fluorescence signals before western blot analysis. […]

AGPAT4 = biological target: T1, AGPAT4 (Homo sapiens, UniProt Q9NRZ5, C228A); assay: Competitive gel-based ABPP in live cells with CL26-alkyne probe; format: cell-based; details: Huh7 cells, AGPAT4 C228A mutation
T1 construct: The open reading frame (ORF) encoding the mRNA of AGPAT4 was cloned into the pDONR-221 donor vector; expressed in transfected cells; host or cells: Huh7
T1 sequence (Q9NRZ5 1-378 C228A): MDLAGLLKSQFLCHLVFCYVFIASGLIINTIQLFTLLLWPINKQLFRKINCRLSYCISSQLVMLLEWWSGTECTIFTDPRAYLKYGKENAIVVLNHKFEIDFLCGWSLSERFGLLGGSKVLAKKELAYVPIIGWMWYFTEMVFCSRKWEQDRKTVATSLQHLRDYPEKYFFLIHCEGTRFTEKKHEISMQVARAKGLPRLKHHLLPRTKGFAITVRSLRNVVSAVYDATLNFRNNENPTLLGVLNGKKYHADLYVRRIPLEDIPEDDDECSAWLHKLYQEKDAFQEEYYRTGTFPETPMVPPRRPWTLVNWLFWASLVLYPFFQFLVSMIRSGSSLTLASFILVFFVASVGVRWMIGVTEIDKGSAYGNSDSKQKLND
Description: An in-gel fluorescence assay was performed to investigate the protein targets of CL26. Huh7 cells overexpressing AGPAT4 or cysteine mutants were pre-treated with CL26 at the indicated concentrations for 2 h, followed by CL26-alkyne (1 μM) treatment for another 2 h. Cells were harvested in RIPA buffer supplemented with protease and phosphatase inhibitors (Thermo Fisher Scientific #A32961). The proteins were precipitated by incubation with 6× volume of pre-chilled acetone at −20° C. overnight. Proteins were pelleted by centrifugation at 5000 g for 10 min and resuspended in PBS. The protein content was measured using the BCA assay and normalized to 2 mg/mL. Cell lysates (50 μL) were labelled with azide-fluor 545 by click reaction (final reaction mixture: azide-fluor 545 (25 μM), copper(II) sulfate (1 mM), TBTA (100 μM), and freshly prepared TCEP (1 mM)) at room temperature with constant agitation. After incubation for 1 h, the reaction was quenched with the sampling buffer and boiled at 90° C. for 5 min. Samples were subjected to SDS-PAGE, in-gel fluorescence was captured using ChemiDoc MP (Bio-Rad), and Coomassie Blue staining was performed. Similarly, immunoblotting was used to investigate the protein targets of CL26. Huh7 cells stably transfected with FLAG-AGPAT4 were pre-treated with either the solvent control or CL26 at the indicated concentrations for 2 h, followed by CL26-alkyne (10 μM) treatment for another 2 h. Cells were harvested, and lysates were prepared as described above unless specified. Anti-FLAG M 2 affinity beads were added in FLAG-tag pull-down experiments. After 4 h of incubation at 4° C., the beads were washed with TBS-T and resuspended in TBS-T. Sampling buffer was added and the samples were boiled for protein elution. The samples were subjected to SDS-PAG E and imaged for fluorescence signals before western blot analysis. In the probe pull-down experiment, 1 mL of lysate was labelled with desthiobiotin (DTB)-azide by a click reaction (final reaction mixture: copper(II) sulfate (1 mM), TBTA (100 μM), DTB-PEG-azide (100 μM), and freshly prepared TCEP (1 mM)). […]

advanced HCC = details: advanced unresectable HCC, cited from earlier work
HCC [2] = details: Asian study; cited from earlier work
HCC [3] = details: cited from earlier work
HCC [4] = details: cited from earlier work; remark: listed apart in the source
NRAS+AKT-driven HCC = assay: NRAS+AKT HTVI HCC mouse model, AAV8-shAgpat4 and sorafenib; format: in vivo, C57BL/6 mice; details: sorafenib alone, control (NTC) group
Description: Six- to eight-week-old male wildtype C57BL/6 mice (Jackson Laboratory) were used in this study. HTVI procedure was carried out as previously described (41, 42). Briefly, 20 μg of plasmids encoding human AKT1 (myristylated AKT1 or myr-AKT1) and human neuroblastoma Ras viral oncogene homolog (N-RasV12) along with sleeping beauty (SB) transposase at a ratio of 25:1 was diluted in 2 ml of saline (0.9% NaCl), filtered through a 0.22 μm filter and injected into the lateral tail vein of C57BL/6 mice in 5-7 s.
Four weeks after hydrodynamic tail vein injection of proto-oncogenes and SB transposase, the mice were separated into two groups and administered 1×10^11 transducing units of AAV8 virus encoding either shNTC or shAgpat4 in 100 μL PBS via tail vein injection. At 5.5 weeks, mice were administered another dose of the shNTC or shAgpat4 AAV8 virus. Mouse shNTC and mouse shAgpat4 target sequences were cloned into the LV3 vector: 5′-[…] TTTG-3′ (SEQ ID NO:1) and 5′-[…] […]-3′ (SEQ ID NO:2), respectively.
Sorafenib (30 mg/kg/day, delivered orally daily) administration began at 2-3 weeks post HTVI injection, at which point tumors started to develop. Sorafenib treatment lasted for 2.5 weeks, when tumors became non-responsive to the treatment (21). […] Tumor-bearing mice were euthanized at the humane endpoint.

MHCC97L cells = assay: Orthotopic metastasis model, MHCC97L cells with AGPAT4 shRNA; format: in vivo, BALB/c nude mice; details: MHCC97L cells injected intrahepatically, n=7 per group
Description: Metastasis was assessed by orthotopic injection into the liver to observe extrahepatic metastasis to the lungs. […] Six to eight weeks after implantation, mice were administered 100 mg/kg D-luciferin (Gold Biotechnology) via peritoneal injection 5 min before bioluminescence imaging (IV IS 100 Imaging System, Xenogen). The livers and lungs were harvested for ex vivo imaging and histological analyses. The metastatic nodules in the lungs were counted.

18:1 phosphatidic acid [PA]
self-renewal, migration and invasion capacities (HCC cells (Huh7)): markedly enhanced the self-renewal, migration, and invasion capacities of HCC cells

C#CCCCN(Cc1ccc(-c2nc3ccccc3s2)o1)C(=O)CCl [CL26-alkyne]
specificity for AGPAT4 over other AGPAT LPAAT family members [1]: AGAPT4 was the only protein bound | CL26-alkyne binding to AGPAT4 cysteine mutant (fluorescence signal) (AGPAT4): complete abolishment of the fluorescence signal

CO[C@H]1C[C@@H]2CC[C@@H](C)[C@@](O)(O2)C(=O)C(=O)N2CCCC[C@H]2C(=O)O[C@H]([C@H](C)C[C@@H]2CC[C@@H](OCCO)[C@H](OC)C2)CC(=O)[C@H](C)/C=C(\C)[C@@H](O)[C@@H](OC)C(=O)[C@H](C)C[C@H](C)/C=C/C=C/C=C/1C [everolimus]
median progression free survival (advanced HCC; 28 patients): 3.8 months | overall survival (advanced HCC): 8.4 months

CNC(=O)c1cc(Oc2ccc(NC(=O)Nc3ccc(Cl)c(C(F)(F)F)c3)cc2)ccn1 [sorafenib]
median overall survival (HCC [2]): 6.5 months | median overall survival (HCC [3]; SHARP trial): 10.7 months | tolerability (HCC [3]; phase III trials): generally well tolerated | time to radiological progression under treatment (HCC [4]; HCC): 4-5 months | expansion of patient median survival (HCC [4]; first-line treatment of HCC): approximately 3 months | Agpat4 and p-mTOR expression in tumors (NRAS+AKT-driven HCC): increase in Agpat4 and p-mTOR expression

sh82: shRNA clone targeting human AGPAT4, clone ID NM_020133.3 (guide CCGGAUGAUUGGUGUGACGGAAAUUCUCGAGAAUUUCCGUCACACCAAUCAUUUUUUG)
tumors developing extrahepatic metastases in the lung (MHCC97L cells): 0 | tumors formed in the liver (MHCC97L cells): 5 of 7

sh83: second independent shRNA clone targeting human AGPAT4, printed sh83 in b403 (guide CCGGGUGAUCAUAGAAAGGGUAUUUCUCGAGAAAUACCCUUUCUAUGAUCACUUUUUG)
tumors developing extrahepatic metastases in the lung (MHCC97L cells): 0 | tumors formed in the liver (MHCC97L cells): 7 of 7
